In ChEMBL document CHEMBL1201862, “PubChem BioAssay data set” (2004):
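Five compound concentrations were applied to cells in 96-well plates for 48 hours; endpoints were derived by simple linear interpolation of the resulting dose-response curve. The concentration for 50% growth inhibition is given as GI50.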 Calls of active or inactive are those of the source. Cut-off read from the data, not from the text of the source: active = GI50 up to about 1.1 µM and inactive = higher.

What was measured:
Assay in all cases: NCI tumour cell line growth inhibition, 48 h
MDA-MB-231 = test system: MDA-MB-231
IGROV-1 = test system: IGROV-1
SK-OV-3 = test system: SK-OV-3
SNB-75 = test system: SNB-75
LOX IMVI = test system: LOX IMVI
MOLT-4 = test system: MOLT-4
RPMI-8226 = test system: RPMI-8226
HT-29 = test system: HT-29
A498 = test system: A498
A549 = test system: A549
MDA-N = test system: MDA-N
KM12 = test system: KM12
T47D = test system: T47D
OVCAR-8 = test system: OVCAR-8
RXF 393 = test system: RXF 393
KM-20L2 = test system: KM-20L2
SNB-78 = test system: SNB-78
DMS-273 = test system: DMS-273
XF498 = test system: XF498

SMILES | GI50 (MDA-MB-231) | GI50 (IGROV-1) | GI50 (SK-OV-3) | GI50 (SNB-75) | GI50 (LOX IMVI) | GI50 (MOLT-4) | GI50 (RPMI-8226) | GI50 (HT-29) | GI50 (A498) | GI50 (A549) | GI50 (MDA-N) | GI50 (KM12) | GI50 (T47D) | GI50 (OVCAR-8) | GI50 (RXF 393) | GI50 (KM-20L2) | GI50 (SNB-78) | GI50 (DMS-273) | GI50 (XF498)
Nc1ccn(C2CCC(CO)O2)c(=S)n1 (centres undefined) | > 100 µM (inactive) | > 100 µM (inactive) | > 100 µM (inactive) | 89.5 µM (inactive) | > 100 µM (inactive) | > 100 µM (inactive) | 35.8 µM (inactive) | > 100 µM (inactive) | > 100 µM (inactive) | > 100 µM (inactive) | > 100 µM (inactive) | > 100 µM (inactive) | > 100 µM (inactive) | > 100 µM (inactive) | > 100 µM (inactive) |  |  |  | 
O=C(O)c1nnsc1-c1csnn1 | > 100 µM (inactive) | > 100 µM (inactive) | > 100 µM (inactive) | > 100 µM (inactive) | > 100 µM (inactive) | > 100 µM (inactive) | > 100 µM (inactive) | > 100 µM (inactive) | > 100 µM (inactive) | > 100 µM (inactive) | > 100 µM (inactive) | > 100 µM (inactive) | > 100 µM (inactive) | > 100 µM (inactive) | > 100 µM (inactive) |  |  |  | 
N#CC(c1ccccc1)(c1ccccc1)[C@@H](c1ccccc1)[C@H](Cc1ccccc1)NS(=O)(=O)c1ccccc1 | > 100 µM (inactive) | > 100 µM (inactive) | > 100 µM (inactive) | > 100 µM (inactive) | > 100 µM (inactive) | 15.7 µM (inactive) | 10.3 µM (inactive) | > 100 µM (inactive) | > 100 µM (inactive) | > 100 µM (inactive) | > 100 µM (inactive) | > 100 µM (inactive) | > 100 µM (inactive) | > 100 µM (inactive) | 84.7 µM (inactive) |  |  |  | 
C[C@H]1C(=O)C2=C[C@H]1CCC(=O)[C@]1(C)CCCC(C)(C)[C@H]1C[C@H]2O | 5.38 µM (inactive) | 37.9 µM (inactive) | 39.6 µM (inactive) | 16.7 µM (inactive) | 17.3 µM (inactive) | 22.1 µM (inactive) | 12.5 µM (inactive) | 13.9 µM (inactive) | 12.1 µM (inactive) | 19 µM (inactive) | 31.6 µM (inactive) | 19 µM (inactive) | 17.6 µM (inactive) | 17.5 µM (inactive) | 11.5 µM (inactive) |  |  |  | 
CN(Cc1ccccc1)/C(=N\C#N)N(Cc1ccccc1)Cc1ccccc1 | 20.6 µM (inactive) | 24.3 µM (inactive) | 29 µM (inactive) | 30.5 µM (inactive) | 16.4 µM (inactive) | 10.5 µM (inactive) | 21 µM (inactive) | 14.7 µM (inactive) | 44.8 µM (inactive) | 31 µM (inactive) | 17.9 µM (inactive) | 18.7 µM (inactive) | 27.7 µM (inactive) | 29.9 µM (inactive) | 28.9 µM (inactive) | 19.6 µM (inactive) | 26.3 µM (inactive) | 20.9 µM (inactive) | 
Cc1c(C)n(-c2ccccc2)c2nc([S+](C)[O-])nc([S+](C)[O-])c12 (centres undefined) | 4.74 µM (inactive) | 3.79 µM (inactive) | 18.5 µM (inactive) | 9.1 µM (inactive) | 1.81 µM (inactive) | 2.33 µM (inactive) | 1.66 µM (inactive) | 6.05 µM (inactive) | 13.1 µM (inactive) | 16.6 µM (inactive) | 3.68 µM (inactive) | 13.3 µM (inactive) | 2.44 µM (inactive) | 4.09 µM (inactive) | 2.92 µM (inactive) |  |  |  | 
Cc1cc(=O)n2c(cc3cccccc32)n1 |  | > 100 µM (inactive) |  | > 100 µM (inactive) | > 100 µM (inactive) | > 100 µM (inactive) | > 100 µM (inactive) | > 100 µM (inactive) | > 100 µM (inactive) | > 100 µM (inactive) |  | > 100 µM (inactive) |  | > 100 µM (inactive) | > 100 µM (inactive) | > 100 µM (inactive) | > 100 µM (inactive) | > 100 µM (inactive) | 
N[C@@H](Cc1ccccc1)C(=O)N1CCC[C@@H]1P(=O)(Oc1ccccc1)Oc1ccccc1 | > 100 µM (inactive) | > 100 µM (inactive) | > 100 µM (inactive) | > 100 µM (inactive) | > 100 µM (inactive) | 60.3 µM (inactive) | 96.4 µM (inactive) | 86.3 µM (inactive) | > 100 µM (inactive) | > 100 µM (inactive) | > 100 µM (inactive) | > 100 µM (inactive) | > 100 µM (inactive) | > 100 µM (inactive) | > 100 µM (inactive) |  |  |  | 
CCOC(=O)c1ccc(NC(=O)SCCC(=O)O)cc1 |  | 35.4 µM (inactive) |  | < 0.01 µM (active) | 64.3 µM (inactive) | 23 µM (inactive) | > 100 µM (inactive) | 52.5 µM (inactive) | > 100 µM (inactive) | > 100 µM (inactive) |  | > 100 µM (inactive) |  | 56.4 µM (inactive) | 8.04 µM (inactive) | > 100 µM (inactive) | > 100 µM (inactive) | > 100 µM (inactive) | 
CC1(C)C(O)c2ccccc2OC1N1CCN(C2Oc3ccccc3C(O)C2(C)C)CC1 (centres undefined) | > 100 µM (inactive) | > 100 µM (inactive) | > 100 µM (inactive) | > 100 µM (inactive) | > 100 µM (inactive) | > 100 µM (inactive) | > 100 µM (inactive) | > 100 µM (inactive) | 30 µM (inactive) | > 100 µM (inactive) | > 100 µM (inactive) | > 100 µM (inactive) | > 100 µM (inactive) | > 100 µM (inactive) | > 100 µM (inactive) |  |  |  | 
CC(C)(C)OC(=O)NC1CCCC1C(=O)C1=CCCC1 (centres undefined) | 82.8 µM (inactive) | 33.4 µM (inactive) | > 100 µM (inactive) | 72.9 µM (inactive) | 50.6 µM (inactive) | > 100 µM (inactive) | > 100 µM (inactive) | > 100 µM (inactive) | > 100 µM (inactive) | > 100 µM (inactive) | 53 µM (inactive) | 92 µM (inactive) | 28.6 µM (inactive) | > 100 µM (inactive) | > 100 µM (inactive) |  |  |  | 
CCOP(=O)(OCC)C(Nc1ccc(Br)cc1)c1cccc([N+](=O)[O-])c1 (centres undefined) | 15 µM (inactive) | 22.1 µM (inactive) | 14.6 µM (inactive) | 29.2 µM (inactive) | 10.4 µM (inactive) | 17 µM (inactive) | 28.2 µM (inactive) | 16.8 µM (inactive) | 13.3 µM (inactive) | 15.8 µM (inactive) | 19.2 µM (inactive) | 12.6 µM (inactive) | 12.6 µM (inactive) | 24.6 µM (inactive) | 14.4 µM (inactive) |  |  |  | 
CCOC(=O)c1sc2ncnc(N)c2c1C | > 100 µM (inactive) | 22.1 µM (inactive) | > 100 µM (inactive) | 35.1 µM (inactive) | 43.8 µM (inactive) | 65.2 µM (inactive) | 95.5 µM (inactive) | 18.2 µM (inactive) | 24.4 µM (inactive) | > 100 µM (inactive) | 41.8 µM (inactive) | 47.1 µM (inactive) | 24.2 µM (inactive) | 35 µM (inactive) | 22.8 µM (inactive) |  |  |  | 
COc1ccc([C@@H]2C[C@@H]3C(=O)OC(=O)[C@@H]3c3c2c2ccccc2n3C)cc1 |  | > 100 µM (inactive) | > 100 µM (inactive) | > 100 µM (inactive) |  | > 100 µM (inactive) | > 100 µM (inactive) | > 100 µM (inactive) | > 100 µM (inactive) | > 100 µM (inactive) |  | > 100 µM (inactive) |  | > 100 µM (inactive) |  |  |  | > 100 µM (inactive) | > 100 µM (inactive)
Cc1cc(C)nc(SC(C)C(=O)N/N=C/c2ccc(OCc3ccccc3)cc2)n1 (centres undefined) | 19.7 µM (inactive) | 54.8 µM (inactive) | 41.5 µM (inactive) | 33 µM (inactive) | 22.1 µM (inactive) | 17.1 µM (inactive) | 13.3 µM (inactive) | 14.5 µM (inactive) | 31.8 µM (inactive) | 31.3 µM (inactive) | 22.8 µM (inactive) | > 100 µM (inactive) | 9.53 µM (inactive) | 30.4 µM (inactive) | 19.1 µM (inactive) |  |  |  | 
CC[N+](CC)(CC)Cc1cn(S(=O)(=O)c2ccccc2)c2ccccc12 |  | > 100 µM (inactive) |  | 40.7 µM (inactive) |  | > 100 µM (inactive) | > 100 µM (inactive) | > 100 µM (inactive) |  | > 100 µM (inactive) |  | > 100 µM (inactive) |  | > 100 µM (inactive) |  | > 100 µM (inactive) |  | > 100 µM (inactive) | > 100 µM (inactive)
N#C[BH2-][n+]1ccc(C(=O)NNCc2cccc(C(F)(F)F)c2)cc1 | 10.4 µM (inactive) | 30.1 µM (inactive) | 8.93 µM (inactive) | 3.85 µM (inactive) | 4.26 µM (inactive) | 17.6 µM (inactive) | 21.4 µM (inactive) | 6.01 µM (inactive) | 21.6 µM (inactive) | 13.5 µM (inactive) | 10.2 µM (inactive) | 4.76 µM (inactive) | 20 µM (inactive) | 3.98 µM (inactive) | 8.22 µM (inactive) |  |  |  | 
CCCNC1=C2CC(C)CC(OC)[C@@H](O)[C@H](C)/C=C(\C)C(OC(N)=O)C(OC)/C=C\C=C(/C)C(=O)NC(=CC1=O)C2=O (some centres undefined) | 0.318 µM (active) | 0.498 µM (active) | 0.101 µM (active) | 0.318 µM (active) | 0.103 µM (active) | 0.332 µM (active) | 0.762 µM (active) | 0.0101 µM (active) | 0.944 µM (active) | 0.0847 µM (active) | 0.118 µM (active) | 0.0362 µM (active) | 0.476 µM (active) | 0.337 µM (active) | 1.56 µM (inactive) |  |  |  | 
